According to ChEMBL document CHEMBL2021858, “The effect of vindoline C-16 substituents on the biomimetic coupling reaction: synthesis and cytotoxicity evaluation of the corresponding vinorelbine analogues” (Bioorg Med Chem Lett, 2012):

Legend:
HeLa = assay: Cytotoxicity against human HeLa cells by MTT assay; format: functional, cell-based
A549 = assay: Cytotoxicity against human A549 cells by MTT assay; format: functional, cell-based

For `CCC1=C[C@@H]2CN(C1)Cc1c([nH]c3ccccc13)[C@@](C(=O)OC)(c1cc3c(cc1OC)N(C)[C@H]1[C@@](O)(COC(C)=O)[C@H](OC(C)=O)[C@]4(CC)C=CCN5CC[C@]31[C@@H]54)C2`, the IC50 (HeLa) was 5 nM and the IC50 (A549) was 7 nM.

For `CCOc1cc2c(cc1[C@@]1(C(=O)OC)C[C@@H]3C=C(CC)CN(Cc4c1[nH]c1ccccc41)C3)[C@@]13CCN4CC=C[C@@](CC)([C@@H](OC(C)=O)[C@](O)(COC(C)=O)[C@@H]1N2C)[C@H]43`, the IC50 (HeLa) was 11 nM and the IC50 (A549) was 13 nM.

`CCCOc1cc2c(cc1[C@@]1(C(=O)OC)C[C@@H]3C=C(CC)CN(Cc4c1[nH]c1ccccc41)C3)[C@@]13CCN4CC=C[C@@](CC)([C@@H](OC(C)=O)[C@](O)(COC(C)=O)[C@@H]1N2C)[C@H]43` gave an IC50 (HeLa) of 45 nM and an IC50 (A549) of 51 nM.

`CCCCOc1cc2c(cc1[C@@]1(C(=O)OC)C[C@@H]3C=C(CC)CN(Cc4c1[nH]c1ccccc41)C3)[C@@]13CCN4CC=C[C@@](CC)([C@@H](OC(C)=O)[C@](O)(COC(C)=O)[C@@H]1N2C)[C@H]43` was tested, and the IC50 (HeLa) was 89 nM and the IC50 (A549) was 94 nM.

`CCCCCCCOc1cc2c(cc1[C@@]1(C(=O)OC)C[C@@H]3C=C(CC)CN(Cc4c1[nH]c1ccccc41)C3)[C@@]13CCN4CC=C[C@@](CC)([C@@H](OC(C)=O)[C@](O)(COC(C)=O)[C@@H]1N2C)[C@H]43` was tested, and the IC50 (HeLa) was 317 nM and the IC50 (A549) was 331 nM.

For `CCC1=C[C@@H]2CN(C1)Cc1c([nH]c3ccccc13)[C@@](C(=O)OC)(c1cc3c(cc1OC(C)C)N(C)[C@H]1[C@@](O)(COC(C)=O)[C@H](OC(C)=O)[C@]4(CC)C=CCN5CC[C@]31[C@@H]54)C2`, the IC50 (HeLa) was 209 nM and the IC50 (A549) was 236 nM.

Work on `CCC1=C[C@@H]2CN(C1)Cc1c([nH]c3ccccc13)[C@@](C(=O)OC)(c1cc3c(cc1OCCOC(C)=O)N(C)[C@H]1[C@@](O)(COC(C)=O)[C@H](OC(C)=O)[C@]4(CC)C=CCN5CC[C@]31[C@@H]54)C2` yielded an IC50 (HeLa) of 77 nM and an IC50 (A549) of 83 nM.

`CCC1=C[C@@H]2CN(C1)Cc1c([nH]c3ccccc13)[C@@](C(=O)OC)(c1cc3c(cc1OC(C)=O)N(C)[C@H]1[C@@](O)(COC(C)=O)[C@H](OC(C)=O)[C@]4(CC)C=CCN5CC[C@]31[C@@H]54)C2` was tested, and the IC50 (HeLa) was 49 nM and the IC50 (A549) was 56 nM.

With `CCC1=C[C@@H]2CN(C1)Cc1c([nH]c3ccccc13)[C@@](C(=O)OC)(c1cc3c(cc1OC)N(C)[C@H]1[C@@](O)(C(=O)OC)[C@H](OC(C)=O)[C@]4(CC)C=CCN5CC[C@]31[C@@H]54)C2` [VINORELBINE] the IC50 (HeLa) was 9 nM and the IC50 (A549) was 10 nM.
